Substitutions are numbered along the chain they refer to. Each block holds one molecule with its values, some of them ahead of it.
Tests used:
[1] = system: ERα, GREB1 distal ERE, MCF7 cells; test: ChIP of ERα at GREB1 ERE's; format: cell-based; conditions: 10 nM estradiol, six hours
[2] = system: TRIM24, GREB1 distal ERE, MCF7 cells; test: ChIP of TRIM24 at GREB1 ERE's; format: cell-based; conditions: 10 nM estradiol, six hours
[3] = target: T1, TRIM24 PHD-Bromo (F979A/N980A) (Homo sapiens, UniProt O15164, F979A/N980A); test: ITC binding of histone peptides
T1 sequence (O15164 824-1006 F979A/N980A): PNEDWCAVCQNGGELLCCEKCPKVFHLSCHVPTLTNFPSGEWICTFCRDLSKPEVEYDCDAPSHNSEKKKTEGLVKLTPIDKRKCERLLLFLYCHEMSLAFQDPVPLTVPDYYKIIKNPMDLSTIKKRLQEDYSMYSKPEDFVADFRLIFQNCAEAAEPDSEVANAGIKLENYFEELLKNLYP

[4] = target: T2, TRIM24 PHD-Bromo (WT) (Homo sapiens, UniProt O15164); test: ITC binding of histone peptides; conditions: PHD-Bromo (bromodomain binding)
T2 sequence (O15164 824-1006): T1 sequence (O15164 824-1006 F979A/N980A) with A156F, A157N

Molecule: C[C@]12CC[C@@H]3c4ccc(O)cc4CC[C@H]3[C@@H]1CC[C@@H]2O [estradiol]
increase of ERα binding [1]: 7 fold
increase of TRIM24 binding [2]: 6 fold

binding affinity in words [3]: loses most of the binding affinity
Molecule: H3(13-32)K23ac: H3(13–32) peptide bearing acetylated K23; ITC values are those of the -Bio form

binding affinity in words [4]: weak binding affinity
Molecule: H3(13-32)K27ac: H3(13–32) peptide, K27ac; ITC values are those of the -Bio form

— publication PMC3058826 (Nature, 2010)
